Results as given in patent US8981112B2, “Inhibitors of β-secretase” (Boehringer Ingelheim International GmbH, priority 2012, dated 2015).
pIC50: −log10 of the molar value. Like-named read-outs stand apart in the source and are kept apart here.

Assays:
[1] = system: production of Abeta1-x peptides in H4 neuroglioma cell line stably expressing human APP; test: H4-APPwt Cell-Based Assay (Assay 2), Abeta1-x production; conditions: for pIC50: Homo sapiens, Table 2 comparison examples, read-out: H4-Cell assay (assay 2); for IC50: H4 neuroglioma cells expressing human APP, Abeta1-x, read-out: H4-APPwt cell IC50 nM (assay 2)
Description: H4-APPwt Cell-Based Assay (Assay 2)
Cellular potency of the compounds of the invention was assessed in an assay monitoring production of Abeta1-x peptides in the H4 neuroglioma cell line (ATCC, Cat. #HTB-148) stably expressing human APP, using an immunoassay such as AlphaLISA (PerkinElmer, Cat.# AL288). Tested compounds were dissolved in DMSO and pre-diluted in the culture medium (DMEM containing 10% FBS and 1% penicillin/streptomycin) to achieve twice the final concentration of the compounds in the assay. Equal volumes of the 2× solutions of the tested compounds and cell suspension were added to a 96-well culture plate, so that each well contained ˜10,000 cells in a final volume of 200 μl. Final concentration of DMSO in the assay was 0.2%. The plates were incubated for 5 hrs at 37° C., 5% CO2 to allow cells to attach to the bottom of the wells in the presence of the tested compounds. Then the media was removed and replaced with fresh media containing tested compounds at the same final concentration. The plates were incubated for 18 hrs at 37° C., 5% CO2. Concentrations of Ab1-x were determined using AlphaLISA immunoassay (PerkinElmer, Cat.# AL288) following manufacturer's protocol. Concentrations of Abeta1-x in the wells containing either DMSO or 10 μM beta-secretase inhibitor (BACE inhibitor IV, EMD Bioscience, Cat. #565788) were used as uninhibited and background controls, correspondingly, for calculating percent inhibition values for each well with the tested compounds.

hERG = hERG (Homo sapiens (Human), UniProt Q12809); test: hERG-Channel Assay (Assay 3), whole-cell patch clamp; format: cell-based; conditions: for inhibition at 10 µM: human, HEK293 cells stably transfected with hERG, pH 7.4, HEK293 cells transfected with hERG
Sequence of hERG (Q12809 whole entry): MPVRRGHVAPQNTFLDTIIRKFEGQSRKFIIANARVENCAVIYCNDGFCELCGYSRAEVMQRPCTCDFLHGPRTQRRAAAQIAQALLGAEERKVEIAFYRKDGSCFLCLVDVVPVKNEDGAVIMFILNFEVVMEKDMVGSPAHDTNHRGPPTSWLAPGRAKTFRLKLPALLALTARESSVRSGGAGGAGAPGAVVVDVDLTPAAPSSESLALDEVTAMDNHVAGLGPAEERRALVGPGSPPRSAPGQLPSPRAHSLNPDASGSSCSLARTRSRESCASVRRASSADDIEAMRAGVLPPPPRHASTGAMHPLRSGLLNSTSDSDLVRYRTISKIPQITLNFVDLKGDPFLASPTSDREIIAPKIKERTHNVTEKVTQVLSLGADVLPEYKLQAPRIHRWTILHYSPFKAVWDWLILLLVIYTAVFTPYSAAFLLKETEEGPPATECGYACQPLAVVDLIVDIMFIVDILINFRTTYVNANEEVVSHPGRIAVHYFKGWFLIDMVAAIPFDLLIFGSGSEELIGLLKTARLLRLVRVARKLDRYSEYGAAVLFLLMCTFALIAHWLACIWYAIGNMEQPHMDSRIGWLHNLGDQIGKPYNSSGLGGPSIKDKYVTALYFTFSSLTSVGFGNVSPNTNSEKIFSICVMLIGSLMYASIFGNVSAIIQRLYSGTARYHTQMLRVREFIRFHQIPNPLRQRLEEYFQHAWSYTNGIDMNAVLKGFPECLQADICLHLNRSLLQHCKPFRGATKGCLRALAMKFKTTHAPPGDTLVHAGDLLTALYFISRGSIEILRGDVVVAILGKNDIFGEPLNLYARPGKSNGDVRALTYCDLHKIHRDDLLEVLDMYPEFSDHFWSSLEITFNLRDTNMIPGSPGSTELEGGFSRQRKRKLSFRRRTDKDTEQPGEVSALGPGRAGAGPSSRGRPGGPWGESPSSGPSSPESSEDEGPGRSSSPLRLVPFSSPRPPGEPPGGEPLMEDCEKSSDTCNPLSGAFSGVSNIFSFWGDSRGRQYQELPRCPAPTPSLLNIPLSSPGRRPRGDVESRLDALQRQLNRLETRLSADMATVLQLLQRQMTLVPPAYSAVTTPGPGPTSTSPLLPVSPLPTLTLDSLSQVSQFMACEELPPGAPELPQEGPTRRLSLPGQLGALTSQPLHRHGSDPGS
From the text: hERG-Channel Assay (Assay 3)
HEK (human embryonic kidney) 293 cells were stably transfected with hERG cDNA.
Cells were superfused with a bath solution containing (mM): NaCl (137), KCl (4.0), MgCl2 (1.0), CaCl2 (1.8), Glucose (10), HEPES (10), pH 7.4 with NaOH. Patch pipettes were made from borosilicate glass tubing using a horizontal puller and filled with pipette solution containing (mM): K-aspartate (130), MgCl2 (5.0), EGTA (5.0), K2ATP (4.0), HEPES (10.0), pH 7.2 with KOH. Resistance of the microelectrodes was in the range between 2 and 5 MΩ.
Membrane currents were recorded using an EPC-10 patch clamp amplifier and PatchMaster software. hERG-mediated membrane currents were recorded at 35° C., using the whole-cell configuration of the patch-clamp technique. Transfected HEK293 cells were clamped at a holding potential of −60 mV and hERG-mediated inactivating tail currents were elicited using a pulse pattern with fixed amplitudes (activation/inactivation: 40 mV for 2000 ms; recovery: −120 mV for 2 ms; ramp to 40 mV in 2 ms; inactivating tail current: 40 mV for 50 ms) repeated at 15 s intervals. During each inter-pulse interval 4 pulses scaled down by a factor of 0.2 were recorded for a P/n leak subtraction procedure. Rs compensation was employed up to a level that safely allowed recording devoid of ringing.
The different concentrations of the test compound were applied sequentially on each of the different cells investigated. A steady state level of baseline current was measured for at least 6 sweeps prior to the application of the first test compound concentration.
The test compound was dissolved in DMSO to yield a master stock solution which was diluted further in DMSO to stock solutions needed for the lower concentrations. Final dilutions in extracellular buffer were prepared freshly from these stocks by a 1:1000 dilution step each before starting the experiments.
Peak current amplitudes were measured 3 ms after the ramp to +40 mV. For baseline and each concentration the peak currents of the three last sweeps before application of the next concentration were averaged. Residual currents (I/I0) were calculated for each cell as the fraction of actual average peak current and average baseline peak current. Results are presented as percent (%) inhibition (1−I/I0)*100% at 10 μM.

[2] = biological target: truncated human beta-secretase, BACE1 (amino acids 1-454) (Homo sapiens (Human), UniProt P56817); test: BACE1 Assay (Assay 1), fluorescence quench assay; format: biochemical; conditions: for pIC50: Table 2 comparison examples, read-out: BACE IC50 (assay 1); for IC50: read-out: BACE1 IC50 nM (assay 1)
Sequence of truncated human beta-secretase, BACE1 (amino acids 1-454) (P56817 22-454): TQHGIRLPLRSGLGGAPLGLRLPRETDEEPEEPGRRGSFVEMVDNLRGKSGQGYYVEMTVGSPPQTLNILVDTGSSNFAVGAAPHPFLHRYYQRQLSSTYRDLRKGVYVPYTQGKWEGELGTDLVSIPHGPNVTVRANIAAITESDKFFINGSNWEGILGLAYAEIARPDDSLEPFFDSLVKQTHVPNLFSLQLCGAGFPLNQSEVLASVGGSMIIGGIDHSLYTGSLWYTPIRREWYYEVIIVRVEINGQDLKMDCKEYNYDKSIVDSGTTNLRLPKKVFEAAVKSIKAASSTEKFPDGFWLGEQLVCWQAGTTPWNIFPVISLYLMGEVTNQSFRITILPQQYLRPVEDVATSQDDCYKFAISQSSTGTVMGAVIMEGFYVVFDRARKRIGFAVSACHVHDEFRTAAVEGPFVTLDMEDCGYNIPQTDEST
Description: The substrate was dissolved at 1 mg/ml in DMSO.
The assay was performed in the presence of OptiMEM (supernatant collected over 24 h and cleared from cellular debris by centrifugation) containing the ectodomain of BACE1, 25 μl water containing the desired 2-fold concentration of test compound and 2% DMSO, 1 μM substrate peptide, 20 mM NaOAc, pH 4.4, and 0.04% Triton-X100 in a total assay volume of 50 μl in a 384 well plate. In general, 25 μl of compound dilution were given to the plate followed by the addition of 10 μl of BACE1 containing OptiMEM™ diluted 1:10 in water with 0.2% Triton X-100. The reaction was started with the addition of 15 μl substrate in NaOAc buffer. The reaction was incubated at rt (dark) in an Envision® multilabel reader (Perkin Elmer) and the cleavage of the substrate was recorded as kinetic for 60 min at ex: 485 nm, em: 538 nm. Blank wells containing no enzyme were included on each plate.
The intensity of fluorescence was regressed against time in order to derive velocities of reaction in all 384 wells. These velocities were used for calculating percent control using an uninhibited control containing 1% DMSO as 100% and blank control performed in the absence of enzyme as 0%. IC50 values were calculated by fitting percent control vs. test compound concentration using Assay Explorer.

[3] = In Vitro Phospholipidosis Assay (Assay 4), Nile red staining; format: cell-based; conditions: human, first effect concentration, U937 cells, read-out: Phospholipidosis FEC IC50 μM (assay 4)
Description: In Vitro Phospholipidosis Assay (Assay 4)
The phospholipidogenic potential of test compounds was assayed using the human hematopoetic U937 cell line. The test principle was to analyze the phospholipid content by staining the cells with the fluorescent dye Nile red.
U937 cells were seeded into cell culture plates at 0.5×10^6 cells/mL in RPMI medium containing 10% FBS, 1% DMSO, and 0.005% gentamicin. The cells were then cultivated with or without different concentrations of test compounds for 48 h under standard culture conditions.
For harvesting the cells were centrifuged at 130×g for 4 min and washed once with PBS. Then 2×0.5 mL cell suspension was prepared for non-fixed cell measurement (0.5 mL for propidium iodide (PI) viability measurement and 0.5 mL for Nile red measurement).
The remaining cells were fixed with 3.7% formaldehyde for 30 min. After a further centrifugation step cells were resuspended with 1.3 mL Nile red working solution (1 μg/mL) and incubated for 5 min at rt. The cell suspension was then washed twice with 3 mL PBS and centrifuged with 130×g for 4 min. The supernatant was discarded and the cells were resuspended with 0.5 mL PBS and kept for flow cytometry measurement. For Nile red staining of the 0.5 mL non-fixed cell samples, 50 μL of a ready to use Nile red solution (10 μg/mL) were added per sample. Samples were kept on ice for 5 min. Thereafter, they were washed once with 4 mL PBS (4° C., 250×g for 8 min) and finally resuspended in 400 μL PBS and kept for flow cytometry measurement.
For the viability measurement, 12.5 μL of the ready to use PI solution (10 μg/mL) were added to the 0.5 mL non-fixed cell suspension. After 15 min of incubation on ice, the samples were measured by flow cytometry using a Coulter Epics XL/MCL flow cytometer.
The viability of the cells of each sample was determined by flow cytometry measurement of the PI content at channel 2 (568-590 nm). Cut-off gates for the fluorescence-dependent differentiation between live and dead cells were defined based on the analysis of cell culture medium control samples.
Only samples with a cell viability of >=90% relative to control samples were analyzed for phospholipidosis. For that, each Nile red sample (non-fixed and fixed samples) was measured by flow cytometry at channel 1 (504-541 nm) and channel 4 (660-680 nm).
For each channel, relative Nile red fluorescence intensity of a test sample was calculated compared to control samples and expressed as percentage of control fluorescence intensity. The assessment of the phospholipidogenic potential and the first effect concentration (FEC) of a test compound was done manually based on the fluorescence intensities at both wavelengths for the fixed cells as well as for the non-fixed cells.

Row | SMILES | pIC50 [1] | hERG (assay 3) (hERG; at 10 μM, Table 2 comparison examples) | pIC50 [2] | IC50 [1] [nM] | IC50 [2] [nM] | inhibition at 10 µM (hERG) [%] | IC50 at 48 h [3] [µM]
1 | COC1CCC2(CC1)Cc1ccc(C#N)cc1C21N=C(N)N(CC2CCCO2)C1=O (centres unmarked) [Comparison example drawing 11, reference compound] | 8.15 | hERG (assay 3) 16% at 10 μM | – | – | – | – | –
2 | COCCN1C(=O)C2(N=C1N)c1cc(C#N)ccc1C[C@]21CC[C@@H](OC)CC1 (some centres unmarked) [Comparison example drawing 14, reference compound] | 7.80 | – | 7.31 | – | – | – | –
3 | COC1CCC2(CC1)Cc1ccc(C#N)cc1C21N=C(N)N(C(C)C)C1=O (centres unmarked) [Comparison example drawing 17, reference compound] | 7.80 | – | 6.97 | – | – | – | –
4 | CO[C@H]1CC[C@]2(CC1)Cc1ccc(CCC3CC3)cc1[C@]21N=C(N)N(C[C@@H]2CCO2)C1=O [Comparison example drawing 20, reference compound] | 7.80 | – | 6.38 | – | – | – | –
5 | CC[C@@H]1C[C@]2(CC[C@H]1OC)Cc1ccc(C#N)cc1[C@]21N=C(N)N(Cc2ncccn2)C1=O [Example 1] | – | – | – | 0.76 | 11 | 8 | 200
6 | CC[C@@H]1C[C@]2(CC[C@H]1OC)Cc1ccc(C#N)cc1[C@]21N=C(N)N(CC(C)(C)F)C1=O [Example 3] | – | – | – | 0.57 | 10 | 9 | > 200
7 | CC[C@H]1C[C@@]2(CC[C@@H]1OC)Cc1ccc(C#N)cc1[C@]21N=C(N)N(C[C@H]2CCCO2)C1=O [Example 5] | – | – | – | 0.9 | – | 7 | 200
8 | COCCN1C(=O)[C@]2(N=C1N)c1cc(C#N)ccc1C[C@@]21CC[C@H](OC)[C@@H](C)C1 [Example 7] | – | – | – | 1.42 | 2 | 8 | 400
9 | CO[C@H]1[C@H](C)C[C@@]2(Cc3ccc(C#N)cc3[C@]23N=C(N)N(Cc2ncc(F)cn2)C3=O)C[C@@H]1C [Example 10] | – | – | – | 1.12 | 9 | 38 | 200
10 | CO[C@H]1[C@H](C)C[C@@]2(Cc3ccc(C#N)cc3[C@]23N=C(N)N(CC2(C)COC2)C3=O)C[C@@H]1C [Example 11] | – | – | – | 0.35 | 4 | 6 | > 400
11 | CO[C@H]1[C@H](C)C[C@@]2(Cc3ccc(C#N)cc3[C@]23N=C(N)N(CC2CCOCC2)C3=O)C[C@@H]1C [Example 16] | – | – | – | 0.2 | 11 | 6 | 200
12 | CO[C@H]1[C@H](C)C[C@@]2(Cc3ccc(C#N)cc3[C@]23N=C(N)N(CCC2COC2)C3=O)C[C@@H]1C [Example 19] | – | – | – | 0.4 | 6 | 8 | 400
13 | CO[C@H]1[C@H](C)C[C@@]2(Cc3ccc(C#N)cc3[C@]23N=C(N)N(Cc2ccncn2)C3=O)C[C@@H]1C [Example 24] | – | – | – | 0.65 | 5 | 23 | 200
14 | CO[C@H]1[C@H](C)C[C@@]2(Cc3ccc(F)cc3[C@]23N=C(N)N(C[C@@H]2CCOC2)C3=O)C[C@@H]1C [Example 25] | – | – | – | 0.99 | – | 10 | 200
15 | CO[C@H]1CC[C@@]2(Cc3ccc(C#N)cc3[C@]23N=C(N)N(CC2COCCO2)C3=O)C[C@@H]1C (some centres unmarked) [Example 27] | – | – | – | 0.95 | 6 | 19 | > 200
